The values below come from patent EP4803525A1 (Hefei Institute of Pharmaceutical Industry Co., Ltd., priority 2023, dated 2025).

pIC50: −log10 of the molar value. Where two headings read alike, the source gives them in different places.

For test [1], the target named is T1, hERG potassium channel (Homo sapiens, UniProt Q12809).
T1 construct: host or cells: HEK-293
Briefly: hERG whole-cell patch-clamp test in HEK-293 cells. It counts as cell-based. As to the method:
HEK-293 cell line stably expressing hERG potassium channels (purchased from Creacell, catalog number: A-0320) was used. HEK293 cell lines were cultured in DMEM medium containing 10% fetal bovine serum and 0.8 mg/mL G418 at a temperature of 37°C and a carbon dioxide concentration of 5%. For patch-clamp assays, cells were separated using TrypLE™ Express before the assay. 4 × 10^3 cells were seeded onto coverslips and cultured in 24-well plates (final volume: 500 µL). The assays were performed 18 hours later.
Whole-cell patch-clamp test: after whole-cell sealing is achieved, the cell membrane voltage is clamped to -80mV. […] Data was collected every 10 seconds to observe the effect of the drug on hERG tail current. A -50 mV stimulus of 0.5 s was used as the leakage current detection. Experimental data were collected by the EPC-10 amplifier and stored in the software. Once the hERG current recorded in whole cells stabilized, drug administration began. Each drug concentration was administered for 5 minutes (or the current stabilized) before the next concentration was measured.

The target in test [2] is T2, PDE4B2 (Homo sapiens, UniProt Q07343).
T2 construct: purchased BPS bioscience
T2 sequence (Q07343 1-564 isoform Q07343-2): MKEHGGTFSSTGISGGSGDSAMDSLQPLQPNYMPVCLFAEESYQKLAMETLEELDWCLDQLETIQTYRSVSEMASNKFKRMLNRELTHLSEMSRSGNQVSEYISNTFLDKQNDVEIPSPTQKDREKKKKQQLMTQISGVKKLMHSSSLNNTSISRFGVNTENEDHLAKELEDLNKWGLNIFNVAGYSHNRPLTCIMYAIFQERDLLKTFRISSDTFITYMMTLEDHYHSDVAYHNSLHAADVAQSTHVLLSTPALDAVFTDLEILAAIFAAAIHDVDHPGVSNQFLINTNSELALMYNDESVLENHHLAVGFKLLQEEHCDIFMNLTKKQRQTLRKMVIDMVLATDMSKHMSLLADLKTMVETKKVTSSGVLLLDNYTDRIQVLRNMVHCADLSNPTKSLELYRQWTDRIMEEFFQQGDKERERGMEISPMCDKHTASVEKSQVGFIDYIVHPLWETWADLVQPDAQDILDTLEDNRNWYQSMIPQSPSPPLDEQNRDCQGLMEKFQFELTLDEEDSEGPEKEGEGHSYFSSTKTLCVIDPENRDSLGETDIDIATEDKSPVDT
The experiment in a line: Inhibitory activity against PDE4B enzyme (AMP-Glo detection). The test is classed as biochemical. As to the method:
2.1 Compound preparation and treatment: all compounds were prepared into 50 mM stock solutions using dimethyl sulfoxide.
2.2 Preparation of working stock solution: a) the reference rolipram was serially diluted 3 times with dimethyl sulfoxide starting from 2 mmol, to a total of 10 concentrations. b) 2 mmol of the compound of the present invention was serially diluted three times with dimethyl sulfoxide (DMSO) to a total of 10 concentrations. c) A 200X positive control (2 mM rolipram) and a 200X vector control (100% dimethyl sulfoxide) were prepared. d) The compound plate was centrifuged at 1000 rpm for 1 minute.
• a) An Echo 550 was used to transfer 20 nL of compound dilution to each well of the detection plate. • b) The test plate was sealed and centrifuged at 1000 rpm for 1 minute. • c) 2X PDE4B2 was prepared in frozen PDE detection buffer. • d) 2 µL of 2X PDE4B2 was added to each well of the detection plate (prepared in step b). • e) The test plate was sealed and incubated for 10 minutes under RT conditions. • f) 2X Cyclic-3',5'-AMP was prepared in PDE detection buffer. • g) 2 µl of 2X Cyclic-3',5'-AMP (prepared in step f) was added to each well of the detection plate (prepared in step e) to initiate the reaction. Incubation was performed at room temperature for 60 minutes. • h) 4 µL of AMP-Glo reagent I was added. • i) 8 µL of AMP detection solution was added. Incubation was performed at room temperature for 60 minutes. • k) The RLU signal was read on the Envision 2105 reader.

Where [3] appears, read: HEK-293 cells stably expressing hERG, whole-cell patch clamp, 0.03-30 µM, read-out: h ERG IC50.

A word on the pIC50: it is the IC50 on a negative log10 scale, so that one unit is a factor of ten.

T1 sequence (Q12809 whole entry): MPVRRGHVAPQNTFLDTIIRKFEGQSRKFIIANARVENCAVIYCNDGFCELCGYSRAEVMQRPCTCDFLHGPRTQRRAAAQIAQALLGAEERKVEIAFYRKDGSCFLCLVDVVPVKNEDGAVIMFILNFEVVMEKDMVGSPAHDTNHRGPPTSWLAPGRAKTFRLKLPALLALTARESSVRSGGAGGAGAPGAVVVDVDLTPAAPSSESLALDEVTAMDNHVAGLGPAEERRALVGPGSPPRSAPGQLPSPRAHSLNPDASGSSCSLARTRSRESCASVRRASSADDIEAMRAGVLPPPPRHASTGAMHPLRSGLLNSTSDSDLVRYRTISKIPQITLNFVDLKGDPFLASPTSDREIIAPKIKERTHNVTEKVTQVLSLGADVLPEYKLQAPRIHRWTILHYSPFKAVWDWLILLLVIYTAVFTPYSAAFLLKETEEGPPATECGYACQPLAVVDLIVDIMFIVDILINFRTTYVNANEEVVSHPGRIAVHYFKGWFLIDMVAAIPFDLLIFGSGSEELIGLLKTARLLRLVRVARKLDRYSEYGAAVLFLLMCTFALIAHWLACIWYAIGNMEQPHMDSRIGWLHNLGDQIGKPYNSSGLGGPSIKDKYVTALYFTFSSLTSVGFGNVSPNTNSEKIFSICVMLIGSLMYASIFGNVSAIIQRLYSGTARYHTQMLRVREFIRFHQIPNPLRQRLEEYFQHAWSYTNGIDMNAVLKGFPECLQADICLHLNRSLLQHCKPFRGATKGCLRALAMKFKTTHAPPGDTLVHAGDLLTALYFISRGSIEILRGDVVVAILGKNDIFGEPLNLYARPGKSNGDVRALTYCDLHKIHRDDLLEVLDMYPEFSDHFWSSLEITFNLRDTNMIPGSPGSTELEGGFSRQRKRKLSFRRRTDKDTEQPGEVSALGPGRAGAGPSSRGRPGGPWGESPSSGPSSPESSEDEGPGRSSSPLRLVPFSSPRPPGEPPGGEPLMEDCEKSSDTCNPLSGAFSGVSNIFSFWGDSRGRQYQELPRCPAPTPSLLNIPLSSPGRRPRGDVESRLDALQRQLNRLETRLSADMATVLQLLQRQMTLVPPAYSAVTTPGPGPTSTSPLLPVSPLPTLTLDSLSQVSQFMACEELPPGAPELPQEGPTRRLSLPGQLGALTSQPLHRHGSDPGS

`[O-][S+]1CCc2nc(N3CC=C(c4ncc(Cl)cn4)CC3)nc(NC3(CO)CCC3)c21` (stereo not drawn) [Example 1, 2-(4-(5-chloropyrimidin-2-yl)-3,6-dihydropyridin-1(2H)-yl)-4-((1-(hydroxymethyl)cyclobutyl)amino)-6,7-dihydrothiopheno[3,2-d]pyrimidine-5-oxide]: in test [1] (setting [3]), the pIC50 is 4.84. `[O-][S+]1CCc2nc(N3CCN(Cc4ncc(Cl)cn4)CC3)nc(NC3(CO)CCC3)c21` (stereo not drawn) [Example 2, 2-(4-((S-chloropyrimidin-2-yl)methyl)piperazin-1-yl)-4-((1-(hydroxymethyl)cyclobutyl)amino)-6,7-dihydrothiopheno[3,2-d]pyrimidine 5-oxide]: the pIC50 in test [1] (setting [3]) was below 4.52; in test [2] it was 7.00 to 7.70. On to `O=C(c1ncc(Cl)cn1)N1CCN(c2nc3c(c(NC4(CO)CCC4)n2)[S+]([O-])CC3)CC1` (stereo not drawn) [Example 3, (5-chloropyrimidin-2-yl)(4-(4-((1-(hydroxymethyl)cyclobutyl)amino)-5-oxo-6,7-dihydrothieno[3,2-d]pyrimidin-2-yl)piperazin-1-yl)methanone], for which, in test [1] (setting [3]), the negative logarithm of the IC50 (pIC50) was below 4.52. In the case of `O=S1(=O)CCc2nc(N3CCC(c4ncc(Cl)cn4)CC3)nc(NC3(CO)CCC3)c21` [Example 4], the pIC50 in test [1] (setting [3]) is below 4.52; in test [2] it was 7.00 to 7.70. On the same counts, the results for `Cc1ccc(O)c(C(=O)NC2CCN(c3nc4c(c(NC5(CO)CCC5)n3)[S+]([O-])CC4)CC2)c1` (stereo not drawn) [Example 7, 2-hydroxyl-N-(1-(4-((1-(hydroxymethyl)cyclobutyl)amino)-5-oxo-6,7-dihydrothiapheno[3,2-d]pyrimidin-2-yl)piperidin-4-yl)-5-methylbenzamide] are below 4.52 and 7.70 to 9.00. For `[O-][S+]1CCc2nc(N3CC4(CN(c5ncc(Cl)cn5)C4)C3)nc(NC3(CO)CCC3)c21` (stereo not drawn) [Example 8], in that order: below 4.52 and 7.00 to 7.70.

As to `O=C(O)Cc1ccc(Nc2nc(N3CC=C(c4ncc(Cl)cn4)CC3)nc3c2[S+]([O-])CC3)cc1F` (stereo not drawn) [Example 14, 2-(4-((2-(4-(5-chloropyrimidin-2-yl)-3,6-dihydropyridin-1(2H)-yl)-5-oxo-6,7-dihydrothiopheno[3,2-d]pyrimidin-4-yl)amino)-2-fluorophenyl)acetic acid], in test [1] (setting [3]), the pIC50 is below 4.52. Consider `O=C(O)Cc1ccc(Nc2nc(N3CC=C(c4ncc(Cl)cn4)CC3)nc3c2S(=O)(=O)CCC3)cc1F` [Example 18, 2-(4-((2-(4-(5-chloropyrimidin-2-yl)-3,6-dihydropyridin-1(2H)-yl)-5,5-dioxo-7,8-dihydro-6H -thiapyrano[3,2-d]pyrimidin-4-yl)amino)-2-fluorophenyl)acetic acid], for which, in test [2], the pIC50 is above 9.00.

As to `O=C(O)Cc1ccc(Nc2nc(N3CCC(c4ncc(Cl)cn4)CC3)nc3c2S(=O)(=O)CCC3)cc1Cl` [Example 21, 2-(2-chloro-4-((2-(4-(5-chloropyrimidin-2-yl)piperidin-1-yl)-5,5-dioxo-7,8-dihydro-6H -thiapyrano[3,2-d]pyrimidin-4-yl)amino)phenyl)acetic acid], the pIC50 was below 4.52 in test [1] (setting [3]) and 7.70 to 9.00 in test [2].

As to `O=C(O)Cc1c(F)cc(Nc2nc(N3CCC(c4ncc(Cl)cn4)CC3)nc3c2S(=O)(=O)CCC3)cc1F` [Example 22, 2-(4-((2-(4-(5-chloropyrimidin-2-yl)piperidin-1-yl)-5,5-dioxo-7,8-dihydro-6H -thiapyrano[3,2-d]pyrimidin-4-yl)amino)-2,6-difluorophenyl)acetic acid], the results for the pIC50 in test [1] (setting [3]) and in test [2] were below 4.52 and 7.70 to 9.00, respectively. In turn, `O=C(O)C1(c2ccc(Nc3nc(N4CCC(c5ncc(Cl)cn5)CC4)nc4c3S(=O)(=O)CCC4)cc2F)CC1` [Example 23, 1-(4-((2-(4-(5-chloropyrimidin-2-yl)piperidin-1-yl)-5,5-dioxo-7,8-dihydro-6H-thiapyrano[3,2-d]pyrimidin-4-yl)amino)-2-fluorophenyl)cyclopropane-1-carboxylic acid] showed a pIC50 in test [2] of 7.70 to 9.00.

In turn, `CC(C)(C)CNC(=O)Cc1ccc(Nc2nc(N3CCC(c4ncc(Cl)cn4)CC3)nc3c2S(=O)(=O)CCC3)cc1F` [Example 24, 2-(4-((2-(4-(5-chloropyrimidin-2-yl)piperidin-1-yl)-5,5-dioxo-7,8-dihydro-6H -thiapyrano[3,2-d]pyrimidin-4-yl)amino)-2-fluorophenyl) -N-neopentylacetamide] had a negative-log IC50 (pIC50) in test [1] below 4.52.

Compound `O=C(O)C1(c2ccc(Nc3nc(N4CCC(c5ncc(Cl)cn5)CC4)nc4c3S(=O)(=O)CCC4)cc2F)CCC1` [Example 25, 1-(4-((2-(4-(5-chloropyrimidin-2-yl)piperidin-1-yl)-5,5-dioxo-7,8-dihydro-6H -thiapyrano[3,2-d]pyrimidin-4-yl)amino)-2-fluorophenyl)cyclobutane-1-carboxylic acid] had a pIC50 in test [2] of 7.70 to 9.00. `O=C(O)C1(c2ccc(Nc3nc(N4CC=C(c5ncc(Cl)cn5)CC4)nc4c3S(=O)(=O)CCC4)cc2F)CCC1` [Example 26, 1-(4-((2-(4-(5-chloropyrimidin-2-yl)-3,6-dihydropyridin-1(2H)-yl)-5,5-dioxo-7,8-dihydro-6H -thiapyrano[3,2-d]pyrimidin-4-yl)amino)-2-fluorophenyl)cyclobutane-1-carboxylic acid]: the pIC50 in test [1] (setting [3]) is below 4.52.

Turning to `O=C(O)Cc1ccc(Nc2nc(N3CCN(c4ncc(Cl)cn4)CC3)nc3c2S(=O)(=O)CCC3)cc1F` [Example 27, 2-(4-((2-(4-(5-chloropyrimidin-2-yl)piperazin-1-yl)-5,5-dioxo-7,8-dihydro-6H -thiapyrano[3,2-d]pyrimidin-4-yl)amino)-2-fluorophenyl)acetic acid], the pIC50 in test [2] was 7.70 to 9.00.
